Here are results for one compound from patent publication US20240285594A1, “COMPOSITIONS AND METHODS FOR TREATING PAIN IN ANIMALS” (North Carolina State University, priority 2023, published 2024).

The test system of one assay is cortisol. The assay can be described thus: Serum cortisol after surgical or sham castration of piglets (Part I, physiological assessment). The assay is classed as in vivo. The conditions noted are these: 1 h post-castration, castrated piglets, compared to C (saline) and CL, FM 2.2 mg/kg intranasal, buffered lidocaine intra-inguinal. On the procedure: A total of 197 Large White×Duroc cross male piglets from 35 litters were enrolled in the study (Table 1). Piglets were individually identified using ear tags (Allflex Global Piglet ear tags, Allflex Livestock Intelligence, Madison, WI), weighed and randomly allocated to one of eight treatment groups (FIG. 1).
Lidocaine was buffered by mixing 2 ml of 8.4% Sodium Bicarbonate to 20 ml of 2% lidocaine HCl injectable solution to achieve a pH of 6.8 (Lidocaine Hydrochloride, Covetrus, Dublin, Ohio, US). […] Piglets were held by both rear legs by one caretaker with the abdomen facing the individual administrating treatment. Buffered lidocaine was injected intra-inguinally (Picture 1) by a second caretaker using a ½ inch needle (Ideal® D3 20 Gauge, Neogen, Lansing, MI) inserted into a syringe (Prima Tech® 2 cc Bottle Mount Vaccinator, Prima Tech USA, Kenansville, NC). A total of 1.5 ml of buffered lidocaine per injection site was administered intramuscularly (IM) into each inguinal canal (left and right) at a 40-degree angle 5-7 cm from the scrotum and 2-3 cm from the abdominal wall. Piglets enrolled in the control treatment (C, S, CF, SF−T1: (C) Castration plus physiological saline (IM and IN; n=25); T2: (S) Sham plus physiological saline (IM and IN; n=25); T5: (CF) Castration plus flunixin (IN; n=25); T6: (SF) Sham plus flunixin (IN; n=24)) were handled in an identical manner and 1.5 ml of sterile saline was injected in the same two locations as described previously.
Immediately following intra-inguinal injection, piglets enrolled in the FM treatment groups were held in sternal recumbency by one individual and 2.2 mg/kg (Banamine®, Merck Animal Health, Madison, NJ, US) was administered in one nostril using was a MAD® nasal intranasal mucosal atomization device (Telefex Incorporated, Wayne, PA, US) attached to a Prima Tech® 0.5 cc bottle mount vaccinator. The same individual administered the treatment by gently holding the piglet's snout using their non-dominant hand to steady the head and administered the drug with the other hand. Piglets in the control group were handled in the same manner in an equivalent volume of 0.2 ml of sterile saline was administered as described above.
Castration was performed by one trained caretaker from the farm. Piglets were picked up, individually held by both hind legs with head down, and two vertical incisions were made through the skin of the scrotum over each testicle using a scalpel blade. Once the incisions were made, testicles were exposed, spermatic cords cut, and testicles were completely removed by traction. A sham castration was performed to mimic similar handling conditions in which piglets were picked up, held in the same manner, and had pressure applied to the scrotal area by the same individual responsible for castration.
Blood was collected 24 h prior to (−24 h), 1 h (1 h), and 24 h post castration (24 h, FIG. 2). Blood samples were collected using the technique described in other studies. The orbital sinus cavity was punctured using an Excel® disposable hypodermic needle 20G (Exel International, Quebec, Canada) and deposited into a 4 ml BD® red vacutainer serum tube (Med Vet International, Mettawa, IL). All tubes were maintained in a cooler and centrifuged (2,000×g for 15 min at 4° C.) no more than eight hours post-collection to separate serum. […]
Serum cortisol concentrations were quantified using a commercially available EIA kit (Arbor Assays DetectX Cortisol EIA Kit, Product #K003). […]

Assay [1] can be described thus: UPAPS behavioral pain scoring and rescue analgesia after castration (Part II). Format: in vivo, piglets. Conditions: -1 h, 0 h and +3 h relative to castration; compared to C (saline). On the procedure:
Behavior scoring was obtained in real-time by observing each piglet for 4-min continuously using Unesp-Botucatu pig acute pain scale (UPAPS). Each piglet was scored by one trained observer at the following timepoints: 1 h before castration (−1 h), immediately post-castration (0 h), and 3 h post-castration (+3 h, FIG. 3). The 4-min sampling time was obtained from the methodology previously validated. Treatments were masked, randomized, and applied to each piglet by a senior researcher. The Unesp-Botucatu UPAPS scale evaluates five behavioral items, with each item divided into four descriptive levels. A numerical score was designated from “0” to “3”, with a “0” representing normal behavior (free of pain) and “3” corresponding to pronounced behavioral deviation (severe pain). Therefore, for each timepoint, piglets may receive a score ranging from 0 (min) to 15 (max; Table 3). Total pain scores were then calculated for each piglet per timepoint. […] This is most referred to rescue analgesia in the literature; and was conducted for each behavioral assessment. Total counts were calculated for piglets identified as requiring or not requiring rescue analgesia by treatment and timepoint. […]

The test system of the next assay is prostaglandin E2 (PGE2). Kind of assay: Serum PGE2 after castration of piglets (Example 3). Format: in vivo. The conditions noted are these: intra-inguinal lidocaine; any time point. On the procedure: Pairwise comparisons of treatments at −24 h: P≥0.77. […] Pairwise comparisons of treatments at 24 h post-castration: P≥0.11.
The objective of this study was to evaluate the effects of intranasal flunixin and intra-inguinal lidocaine application on the castration associated inflammatory response in piglets, as described in Example 1.

Consider `CCN(CC)CC(=O)Nc1c(C)cccc1C` [Buffered lidocaine, lidocaine], for which the cortisol concentrations entry is listed as “no effect” with cortisol and “not different” in the assay on cortisol (listed as CL). Moreover, in assay [1], the “total UPAPS scores” value was “no effect”. The “inflammation (PGE2)” value in the assay with prostaglandin E2 (PGE2) is reported as “did not mitigate inflammation”.
